These results are taken from patent publication US10196369B2, “Spirocyclic EBI2 modulators” (Sanford Burnham Prebys Medical Discovery Institute, priority 2013, dated 2019).

Chain of EBI2 (P32249 whole entry): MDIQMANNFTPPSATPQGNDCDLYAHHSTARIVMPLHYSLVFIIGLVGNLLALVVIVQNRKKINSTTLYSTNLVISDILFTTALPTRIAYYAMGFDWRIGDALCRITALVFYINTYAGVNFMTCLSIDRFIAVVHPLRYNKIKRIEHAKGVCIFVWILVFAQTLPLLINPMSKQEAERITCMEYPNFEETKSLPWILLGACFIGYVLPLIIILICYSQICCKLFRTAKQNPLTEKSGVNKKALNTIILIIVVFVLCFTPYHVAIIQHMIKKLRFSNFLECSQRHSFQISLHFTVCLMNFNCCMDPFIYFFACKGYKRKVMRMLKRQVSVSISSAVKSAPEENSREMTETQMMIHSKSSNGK

The test concerns the target EBI2 (Homo sapiens, UniProt P32249). Kind of test: Cell-based luminescent assay of EBI2 modulation (7a,25-OHC stimulated). Conditions: 7a,25-OHC final assay concentration 80 nM, 60 minute incubation. In a few lines: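 Cells expressing EBI2 were plated overnight, then treated 60 min at 37 °C with compound (final 4-5 uM) plus 7a,25-OHC (80 nM final). Detection reagent was added for 60 min at 25 °C in the dark, with luminescence read-out. Values were normalized between neutral and stimulator controls and corrected for plate patterns.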
The IC50 is the concentration that inhibits the measured activity by half. Read a high IC50 as a need for much substance. Molecule `O=C(C#Cc1ccc(F)cc1)N1CC2(CCN(C(=O)c3ccc(Br)cc3)CC2)C1` [Compound C95, 1-{7-[(4-bromophenyl)carbonyl]-2,7-diazaspiro[3.5]non-2-yl}-3-(4-fluorophenyl)prop-2-yn-1-one] came in with an IC50 of less than 100 nM.
Molecule `O=C(C#Cc1ccc(F)cc1)N1CC2(CCN(C(=O)c3ccc(C(F)(F)F)cc3)CC2)C1` [Compound C96, 3-(4-fluorophenyl)-1-(7-{[4-(trifluoromethyl)phenyl]carbonyl}-2,7-diazaspiro[3.5]non-2-yl)prop-2-yn-1-one] displayed a 50% inhibitory concentration (IC50) of less than 100 nM.
For `COc1ccc(C(=O)N2CCC3(CC2)CN(C(=O)C#Cc2ccc(F)cc2F)C3)cc1` [Compound C97, 3-(2,4-difluorophenyl)-1-{7-[(4-methoxyphenyl)carbonyl]-2,7-diazaspiro[3.5]non-2-yl}prop-2-yn-1-one], the half-maximal inhibitory concentration (IC50) was in the range of 100 to 500 nM.
`O=C(C#Cc1ccc2c(c1)OCO2)N1CCC2(CC1)CN(C(=O)c1ccc(Cl)cc1)C2` [Compound C98, 3-(2H-benzo[3,4-d]1,3-dioxolen-5-yl)-1-{2-[(4-chlorophenyl)carbonyl]-2,7-diazaspiro[3.5]non-7-yl}prop-2-yn-1-one]: the IC50 is 100 to 500 nM.
In the case of `O=C(C#Cc1ccc(F)cc1)N1CCC2(CC1)CN(C(=O)c1ccc(Br)cc1)C2` [Compound C99, 1-{2-[(4-bromophenyl)carbonyl]-2,7-diazaspiro[3.5]non-7-yl}-3-(4-fluorophenyl)prop-2-yn-1-one], the 50% inhibitory concentration (IC50) lay within 100 to 500 nM.
In turn, `O=C(c1ccc(C(F)(F)F)c(F)c1)N1CCC2(CC1)CCN(C(=O)c1cc3cc(Cl)ccc3[nH]1)CC2` [Compound C100, 5-chloroindol-2-yl 9-{[3-fluoro-4-(trifluoromethyl)phenyl]carbonyl}-3,9-diazaspiro[5.5]undec-3-yl ketone] registered an IC50 of less than 100 nM.
In the case of `O=C(C#Cc1ccc2c(c1)OCO2)N1CCC2(CC1)CN(C(=O)c1ccc(Br)cc1)C2` [Compound I1, 3-(2H-benzo[3,4-d]1,3-dioxolen-5-yl)-1-{2-[(4-bromophenyl)carbonyl]-2,7-diazaspiro[3.5]non-7-yl}prop-2-yn-1-one], the IC50 was 500 to 5000 nM.
Under `O=C(/C=C/c1ccc(Br)cc1)N1CCC2(CC1)CN(C(=O)c1ccc(Cl)cc1)C2` [Compound L1, (2E)-3-(4-bromophenyl)-1-{2-[(4-chlorophenyl)carbonyl]-2,7-diazaspiro[3.5]non-7-yl}prop-2-en-1-one] stands less than 100 nM.
In the case of “bromophenyl)-1-{2-[(4-bromophenyl)carbonyl]-2,7-diazaspiro[3.5]non-7-yl}prop-2-yn-1-one [Compound C66]” it was 100 to 500 nM.
